Reference: US8778964B2, “Hydroxy-substituted imidazo[1,2-a]-pyridinecarboxamides and their use” (Bayer Pharma Aktiengesellschaft, priority 2012, dated 2014)
Counter-ions that a name gives are not always drawn.

Test system: recombinant guanylate cyclase reporter cell line
Assay: Action on recombinant guanylate cyclase reporter cell line (MEC)
Type: cell-based
Details: in some cases mean values obtained from individual determinations
Procedure: B-2. Action on Recombinant Guanylate Cyclase Reporter Cell Line
The cellular action of the compounds according to the invention is determined on a recombinant guanylate cyclase reporter cell line, as described in F. Wunder et al., Anal. Biochem. 339, 104-112 (2005).
Representative values (MEC=minimal effective concentration) for the compounds according to the invention are shown in the following table (in some cases as mean values obtained from individual determinations): […]

SMILES | minimal effective concentration [µM] | minimal effective concentration (trifluoroacetate) [µM]
Cc1nc2c(OCc3c(F)cccc3F)cccn2c1C(=O)N[C@H]1CC[C@H](O)CC1 [Example 42, (rac)-8-[(2,6-difluorobenzyl)oxy]-N-(trans-4-hydroxycyclohexyl)-2-methylimidazo[1,2-a]-pyridine-3-carboxamide] | 1 | –
CCC[C@@H](CO)NC(=O)c1c(C)nc2c(OCC3CCCCC3)cccn12 [Example 89, 8-(cyclohexylmethoxy)-N-[(2S)-1-hydroxypentan-2-yl]-2-methylimidazo[1,2-a]pyridine-3-carboxamide] | 1 | –
Cc1nc2c(OCc3c(F)cccc3F)cccn2c1C(=O)NC(CO)CCC(F)(F)F (racemic) [Example 101, rac-8-[(2,6-difluorobenzyl)oxy]-2-methyl-N-(5,5,5-trifluoro-1-hydroxypentan-2-yl)-imidazo[1,2-a]pyridine-3-carboxamide trifluoroacetate] | 0.1 | –
CCCC[C@H](CO)NC(=O)c1c(C)nc2c(OCc3c(F)cc(F)cc3F)cccn12 [Example 15, N-[(2R)-1-Hydroxyhexan-2-yl]-2-methyl-8-[(2,4,6-trifluorobenzyl)oxy]imidazo[1,2-a]pyridine-3-carboxamide] | 0.1 | –
CCCC[C@H](CO)NC(=O)c1c(C)nc2c(OCc3cccc(F)c3)cccn12 [Example 6, 8-[(3-fluorobenzyl)-oxy]-N-[(2R)-1-hydroxyhexan-2-yl]-2-methylimidazo[1,2-a]pyridine-3-carboxamide] | 0.1 | –
CC[C@H](CO)NC(=O)c1c(C)nc2c(OCc3ccccc3)cccn12 [Example 17, 8-(Benzyloxy)-N-[(2R)-1-hydroxybutan-2-yl]-2-methylimidazo[1,2-a]pyridine-3-carboxamide] | 3 | –
CCCc1nc2c(OCC3CCCCC3)cccn2c1C(=O)N[C@@H](C)CO [Example 57, 8-(cyclohexylmethoxy)-N-[(2S)-1-hydroxypropan-2-yl]-2-propylimidazo[1,2-a]-pyridine-3-carboxamide] | 1 | –
CSCC[C@H](CO)NC(=O)c1c(C)nc2c(OCc3c(F)cccc3F)cccn12 [Example 25, 8-[(2,6-difluorobenzyl)oxy]-N-[(2R)-1-hydroxy-4-(methylsulphanyl)butan-2-yl]-2-methyl-imidazo[1,2-a]pyridine-3-carboxamide] | 0.1 | –
Cc1nc2c(OCc3c(F)cccc3F)cccn2c1C(=O)NC(CCCC(F)(F)F)C(C)(C)O (racemic) [Example 150, rac-8-[(2,6-difluorobenzyl)oxy]-2-methyl-N-(7,7,7-trifluoro-2-hydroxy-2-methylheptan-3-yl)imidazo[1,2-a]pyridine-3-carboxamide] | 0.03 | –
COCC(O)CNC(=O)c1c(C)nc2c(OCC3CCCCC3)cccn12 (centres unmarked) [Example 79, 8-(cyclohexylmethoxy)-N-(2-hydroxy-3-methoxypropyl)-2-methylimidazo[1,2-a]pyridine-3-carboxamide] | 0.3 | –
CSCC[C@@H](CO)NC(=O)c1c(C)nc2c(OCC3CCCCC3)cccn12 [Example 90, 8-(cyclohexylmethoxy)-N-[(2S)-1-hydroxy-4-(methylsulphanyl)butan-2-yl]-2-methylimidazo[1,2-a]pyridine-3-carboxamide] | 1 | –
Cc1nc2c(OCc3c(F)cccc3F)cccn2c1C(=O)NC[C@H](O)c1ccccc1 [Example 33, 8-[(2,6-difluorobenzyl)oxy]-N-[(2R)-2-hydroxy-2-phenylethyl]-2-methylimidazo[1,2-a]pyridine-3-carboxamide] | 0.3 | –
Cc1nc2c(OCc3c(F)cccc3F)cccn2c1C(=O)NC(C)C(O)C(F)(F)F (single isomer, unassigned) [Example 144, 8-[(2,6-Difluorobenzyl)oxy]-2-methyl-N-(4,4,4-trifluoro-3-hydroxybutan-2-yl)imidazo[1,2-a]-pyridine-3-carboxamide] | 0.3 | –
CC[C@H](C)[C@@H](CO)NC(=O)c1c(C)nc2c(OCC3CCCCC3)cccn12 [Example 91, 8-(cyclohexylmethoxy)-N-[(2S,3S)-1-hydroxy-3-methylpentan-2-yl]-2-methylimidazo[1,2-a]pyridine-3-carboxamide] | 1 | –
CC[C@H](CO)NC(=O)c1c(C)nc2c(OCc3cccc(Cl)c3Cl)cccn12 [Example 45, 8-[(2,3-dichlorobenzyl)oxy]-N-[(2R)-1-hydroxybutan-2-yl]-2-methylimidazo[1,2-a]-pyridine-3-carboxamide] | 0.65 | –
CC[C@H](CO)NC(=O)c1c(C)nc2c(OCc3cccc(F)c3F)cccn12 [Example 44, 8-[(2,3-difluorobenzyl)oxy]-N-[(2R)-1-hydroxybutan-2-yl]-2-methylimidazo[1,2-a]-pyridine-3-carboxamide] | 0.3 | –

SMILES | minimal effective concentration [µM] | minimal effective concentration (trifluoroacetate) [µM]
C[C@@H](CO)NC(=O)c1c(C(F)(F)F)nc2c(OCC3CCCCC3)cccn12 [Example 56, 8-(cyclohexylmethoxy)-N-[(2S)-1-hydroxypropan-2-yl]-2-(trifluoromethyl)imidazo[1,2-a]pyridine-3-carboxamide] | 1 | –
Cc1nc2c(OCc3c(F)cccc3F)cccn2c1C(=O)NC(CO)c1ccc(F)cc1 (racemic) [Example 103, rac-8-[(2,6-difluorobenzyl)oxy]-N-[1-(4-fluorophenyl)-2-hydroxyethyl]-2-methylimidazo-[1,2-a]pyridine-3-carboxamide trifluoroacetate] | 0.1 | –
CC[C@H](CO)NC(=O)c1c(C)nc2c(OCc3c(F)cccc3F)cccn12 [Example 43, 8-[(2,6-Difluorobenzyl)oxy]-N-[(2R)-1-hydroxybutan-2-yl]-2-methylimidazo[1,2-a]pyridine-3-carboxamide] | 0.16 | –
Cc1nc2c(OCc3c(F)cccc3F)cc(Cl)cn2c1C(=O)N[C@@H](CO)CCO [Example 128, 6-chloro-8-[(2,6-difluorobenzyl)oxy]-N-[(2R)-1,4-dihydroxybutan-2-yl]-2-methylimidazo[1,2-a]pyridine-3-carboxamide] | 0.3 | –
CCCOCC(CO)NC(=O)c1c(C)nc2c(OCc3c(F)cccc3F)cccn12 (racemic) [Example 162, rac-8-[(2,6-Difluorobenzyl)oxy]-N-(1-hydroxy-3-propoxypropan-2-yl)-2-methylimidazo[1,2-a]-pyridine-3-carboxamide] | 0.3 | –
Cc1nc2c(OCc3c(F)cccc3F)cccn2c1C(=O)N[C@@H](CO)CCO [Example 129, 8-[(2,6-difluorobenzyl)oxy]-N-[(2R)-1,4-dihydroxybutan-2-yl)-2-methylimidazo[1,2-a]pyridine-3-carboxamide] | 3 | –
Cc1nc2c(OCC3CCCCC3)cccn2c1C(=O)NC(CO)(CO)CO [Example 77, 8-(cyclohexylmethoxy)-N-[1,3-dihydroxy-2-(hydroxymethyl)propan-2yl]-2-methylimidazo[1,2-a]pyridine-3-carboxamide formate] | 0.3 | –
Cc1nc2c(OCC3CCCCC3)cccn2c1C(=O)NCCOCCO [Example 86, 8-(cyclohexylmethoxy)-N-[2-(2-hydroxyethoxy)ethyl]-2-methylimidazo[1,2-a]-pyridine-3-carboxamide] | 0.65 | –
Cc1nc2c(OCc3c(F)cccc3F)cccn2c1C(=O)NC(CO)CCCC(F)(F)F (racemic) [Example 102, rac-8-[(2,6-difluorobenzyl)oxy]-2-methyl-N-(6,6,6-trifluoro-1-hydroxyhexan-2-yl)-imidazo[1,2-a]pyridine-3-carboxamide trifluoroacetate] | – | 0.1
Cc1nc2c(OCc3c(F)cccc3F)cccn2c1C(=O)NC1(CO)CCC1 [Example 125, 8-[(2,6-Difluorobenzyl)oxy]-N-[1-(hydroxymethyl)cyclobutyl]-2-methylimidazo[1,2-a]pyridine-3-carboxamide] | 0.3 | –
Cc1nc2c(OCc3c(F)cccc3F)cccn2c1C(=O)NC(CC(F)(F)F)C(C)(C)O (racemic) [Example 148, rac-8-[(2,6-Difluorobenzyl)oxy]-2-methyl-N-(1,1,1-trifluoro-4-hydroxy-4-methylpentan-3-yl)-imidazo[1,2-a]pyridine-3-carboxamide] | 0.03 | –
Cc1nc2c(OCc3c(F)cccc3F)cccn2c1C(=O)NCCOCCO [Example 24, 8-[(2,6-difluorobenzyl)oxy]-N-[2-(2-hydroxy-ethoxy)ethyl]-2-methylimidazo[1,2-a]pyridine-3-carboxamide] | 1 | –
Cc1nc2c(OCc3c(F)cccc3F)cccn2c1C(=O)NCC(O)COc1ccc(F)cc1 (centres unmarked) [Example 136, 8-[(2,6-difluorobenzyl)oxy]-N-[3-(4-fluorophenoxy)-2-hydroxypropyl]-2-methylimidzao[1,2-a]pyridine-3-carboxamide] | 3 | –
Cc1nc2c(OCC3CCCCC3)cccn2c1C(=O)NC(C)CO (centres unmarked) [Example 84, 8-(cyclohexylmethoxy)-N-(1-hydroxypropan-2-yl)-2-methylimidazo[1,2-a]pyridine-3-carboxamide] | 0.3 | –
Cc1nc2c(OCc3c(F)cccc3F)cccn2c1C(=O)NC(CO)CCC(F)(F)F (single isomer, unassigned; ent-8) [Example 122, ent-8-[(2,6-Difluorobenzyl)oxy]-2-methyl-N-(5,5,5-trifluoro-1-hydroxypentan-2-yl)imidazo[1,2-a]-pyridine-3-carboxamide] | 0.03 | –
Cc1nc2c(OCc3c(F)cccc3F)cccn2c1C(=O)NC(CO)CC(F)(F)F (single isomer, unassigned; ent-8) [Example 121, ent-8-[(2,6-Difluorobenzyl)oxy]-2-methyl-N-(4,4,4-trifluoro-1-hydroxybutan-2-yl)imidazo[1,2-a]-pyridine-3-carboxamide] | 0.03 | –
